This note sets out measurements from article PMC10707934, “Design and Synthesis of Novel α-Methylchalcone Derivatives, Anti-Cervical Cancer Activity, and Reversal of Drug Resistance in HeLa/DDP Cells” (Molecules, 2023).

Where only a bound is given, the exact number is not on record here.

For one series, the system named is HeLa cells. As to the kind of experiment: MTT anti-proliferation assay, HeLa. It is filed as cell-based, human. Conditions: Homo sapiens, 48 h, mean ± SD. As to the method:
All cell types, at a volume of 200 µL per well, were inoculated in 96-well plates at a density of 2.5 × 10^4 cells / mL and cultured for 24 h in an incubator with 5% CO2 at 37 °C. The old culture medium was replaced with 200 µL of fresh medium per well containing positive compounds, at concentrations of 1, 6.25, 12.5, 25, 50, and 100 μM. After 48 h of culture, 20 µL per well of 5 mg·mL^−1 MTT solution was added. After 4 h of culture, the old solution was discarded, and 150 µL per well of DMSO solution was added. Using an enzyme labeler (Thermo Fisher Scientific, Multiskan GO, Waltham, MA, USA), the plates were shaken for 10 min, OD values were determined at 490 nm, and the inhibition rate was calculated. Non-linear regression fitting of the cell growth rate was carried out using SPSS 23.0, and the IC50 of the compound was calculated. The inhibition rate was calculated using the formula: [(ODempty − ODtest)/(ODempty − ODnegative group)] × 100%, (ODempty blank group absorbance, ODtest absorbance of administration group, ODnegative group without cell culture medium). Each group contained six compound holes, and the experimental results averaged three trials. Complete medium containing only cells was used as the blank control; a complete medium without cells as was used as the negative control; and cisplatin, paclitaxel, and adriamycin were used as the positive controls. The concentration gradient was the same as that used for compounds 3a–3p. […]
(Formazan colour is commonly taken as a measure of viable cells.)

The test system of a further series is SiHa cells. Description: MTT anti-proliferation assay, SiHa. It is filed as cell-based, human. Conditions: Homo sapiens, 48 h, mean ± SD. Here is the method:
(§1) All cell types, at a volume of 200 µL per well, were inoculated in 96-well plates at a density of 2.5 × 10^4 cells / mL and cultured for 24 h in an incubator with 5% CO2 at 37 °C. The old culture medium was replaced with 200 µL of fresh medium per well containing positive compounds, at concentrations of 1, 6.25, 12.5, 25, 50, and 100 μM. After 48 h of culture, 20 µL per well of 5 mg·mL^−1 MTT solution was added. After 4 h of culture, the old solution was discarded, and 150 µL per well of DMSO solution was added. Using an enzyme labeler (Thermo Fisher Scientific, Multiskan GO, Waltham, MA, USA), the plates were shaken for 10 min, OD values were determined at 490 nm, and the inhibition rate was calculated. Non-linear regression fitting of the cell growth rate was carried out using SPSS 23.0, and the IC50 of the compound was calculated. The inhibition rate was calculated using the formula: [(ODempty − ODtest)/(ODempty − ODnegative group)] × 100%, (ODempty blank group absorbance, ODtest absorbance of administration group, ODnegative group without cell culture medium). Each group contained six compound holes, and the experimental results averaged three trials. Complete medium containing only cells was used as the blank control; a complete medium without cells as was used as the negative control; and cisplatin, paclitaxel, and adriamycin were used as the positive controls. The concentration gradient was the same as that used for compounds 3a–3p.

For a further series, the system named is C33A cells. As to the kind of experiment: MTT anti-proliferation assay, C33A. Format: cell-based, human. Conditions: Homo sapiens, C-33-A, 48 h, mean ± SD. Here is the method: as §1
Series [1] relates to human cervical epithelial cells H8. Description: MTT toxicity assay, normal cervical epithelial cells H8. As to conditions: Homo sapiens, Epithelial cell, 48 h, mean ± SD. It is filed as cell-based. As to the method: as §1
The subject of another series is HeLa/DDP cells. Description: MTT anti-cisplatin-resistant cervical cancer activity, HeLa/DDP. Conditions: 48 h. It is filed as cell-based, human. Here is the method:
as §1
To mitigate the detrimental consequences arising from the fixation of resistance reversal agents, concentrations that yielded a tumor cell proliferation rate reduction of less than 10% were selected. Consequently, the inhibitory efficacy of compound 3k against HeLa/DDP cells was assessed in conjunction with cisplatin at concentrations of 0.25, 0.5, and 1 μM. The experimental procedure employed was akin to that elucidated in Section 3.3.2. The impact of verapamil (6 μM) and 3k (0.25, 0.5, and 1 μM) on P-gp expression was ascertained via Western blot experiments, employing the same methodology delineated in Section 3.3.4.

With `COc1ccc(OC)c(/C=C(\C)C(=O)c2ccc(Cl)c(Cl)c2)c1` [Compound 3j, (E)-1-(3,4-Dichlorophenyl)-3-(2,5-dimethoxyphenyl)-2-methylprop-2-en-1-one], the half-maximal inhibitory concentration (IC50) (as a rule, the point on the concentration scale where inhibition reaches its midpoint) in the series on HeLa cells is greater than 100 µM; with SiHa cells, greater than 100 µM; in the series with C33A cells, 28.5 ± 3.78 µM; in series [1], greater than 100 µM.

As for `COc1cc(/C=C(\C)C(=O)c2ccc(Cl)c(Cl)c2)cc(OC)c1OC` [Compound 3b, (E)-1-(3,4-Dichlorophenyl)-2-methyl-3-(3,4,5-trimethoxyphenyl)prop-2-en-1-One], the half-inhibitory concentration (IC50) in the series with HeLa cells turned out to be 43.8 ± 3.68 µM; in the series on SiHa cells it was 28.4 ± 2.37 µM; with C33A cells it was 57 ± 6.27 µM; in series [1], 57.7 ± 4.7 µM.

For `COc1ccc(/C=C(\C)C(=O)c2ccc(Cl)c(Cl)c2)c(OC)c1` [Compound 3f, (E)-1-(3,4-dichlorophenyl)-3-(2,4-dimethoxyphenyl)-2-methylprop-2-en-1-one], the melting point (commonly the temperature of the solid-liquid transition) fell in the range of 112.3 to 113.6 °C. Moreover, the half-maximal inhibitory concentration (IC50) with HeLa cells was greater than 100 µM. In the series with SiHa cells, this compound came in with an IC50 greater than 100 µM. In the series with C33A cells, the half-inhibitory concentration (IC50) is 23.7 ± 4.07 µM. The compound further gave an IC50 in series [1] greater than 100 µM.

As for `COc1ccccc1/C=C(\C)C(=O)c1ccc(Cl)c(Cl)c1` [Compound 3l, (E)-1-(3,4-Dichlorophenyl)-3-(2-methoxyphenyl)-2-methylprop-2-en-1-one], the melting point fell in the range of 92.8 to 93.6 °C. Moreover, the half-inhibitory concentration (IC50) in the series on HeLa cells is greater than 100 µM. The IC50 in the series with SiHa cells turned out to be 22.5 ± 1.36 µM. In the series on C33A cells, this compound had an IC50 of 17.3 ± 2.24 µM. Moreover, in series [1], the IC50 was greater than 100 µM.

As for `COc1cc(OC)c(/C=C(\C)C(=O)c2ccc(Cl)cc2Cl)c(OC)c1` [Compound 3e, (E)-1-(2,4-dichlorophenyl)-2-methyl-3-(2,4,6-trimethoxyphenyl)prop-2-en-1-one], the melting point was 104.6 to 105.7 °C. The compound further registered an IC50 with HeLa cells greater than 100 µM. In addition, the IC50 with SiHa cells was greater than 100 µM. In the series with C33A cells, this compound yielded an IC50 greater than 100 µM. Further, the half-inhibitory concentration (IC50) in series [1] was greater than 100 µM.

With `COc1cccc2c1C(=O)c1c(O)c3c(c(O)c1C2=O)C[C@@](O)(C(=O)CO)C[C@@H]3O[C@H]1C[C@H](N)[C@H](O)[C@H](C)O1` [Doxorubicin], the IC50 came to 10.4 ± 1.09 µM in the series on HeLa cells and 38.3 ± 4.57 µM in the series on HeLa/DDP cells (Homo sapiens, HeLa/DDP, MTT, mean ± SD). The “resistance index (RI)” value with HeLa/DDP cells (HeLa/DDP versus parental HeLa) turned out to be 3.68.

In turn, `COc1cc(OC)c(OC)cc1/C=C(\C)C(=O)c1ccc(Cl)c(Cl)c1` [Compound 3a, (E)-1-(3,4-Dichlorophenyl)-2-methyl-3-(2,4,5-trimethoxyphenyl)prop-2-en-1-one] displayed a melting point of 129.6 to 130.5 °C. Also, in the series on HeLa cells, the IC50 was greater than 100 µM. Further, 23.5 ± 4.55 µM corresponded to half-maximal inhibition with SiHa cells (IC50). In the series with C33A cells, the half-maximal inhibitory concentration (IC50) turned out to be 69.9 ± 7.18 µM. The IC50 in series [1] is greater than 100 µM.

In turn, `COc1cccc(OC)c1/C=C(\C)C(=O)c1ccc(Cl)c(Cl)c1` [Compound 3g, (E)-1-(3,4-dichlorophenyl)-3-(2,6-dimethoxyphenyl)-2-methylprop-2-en-1-one] yielded a melting point of 134.4 to 135.6 °C. In the series on HeLa cells, this compound yielded an IC50 of 56.1 ± 4.58 µM. This compound also had an IC50 in the series on SiHa cells greater than 100 µM. In the series on C33A cells, this compound gave an IC50 of 44.8 ± 2.85 µM. This compound yielded a 50% inhibitory concentration (IC50) in series [1] greater than 100 µM.

`C/C(=C\c1ccc(N(C)C)cc1)C(=O)c1ccc(Cl)c(Cl)c1` [Compound 3n, (E)-1-(3,4-Dichlorophenyl)-3-(4-(dimethylamino)phenyl)-2-methylprop-2-en-1-one] gave a melting point of 184 to 184.8 °C. In the series with HeLa cells, this compound yielded a half-maximal inhibitory concentration (IC50) greater than 100 µM. For the same compound, the 50% inhibitory concentration (IC50) in the series with SiHa cells was greater than 100 µM. Half-maximal inhibition with C33A cells (IC50) required 23.4 ± 3.42 µM. In series [1], this compound came in with a 50% inhibitory concentration (IC50) greater than 100 µM.

With `CCN(CC)c1ccc(/C=C(\C)C(=O)c2ccc(Cl)cc2Cl)cc1` [Compound 3p, (E)-1-(2,4-Dichlorophenyl)-3-(4-(diethylamino)phenyl)-2-methylprop-2-en-1-one], the IC50 is greater than 100 µM with HeLa cells, greater than 100 µM with SiHa cells, 41.4 ± 5.42 µM in the series with C33A cells and greater than 100 µM in series [1].

In turn, `COc1cc(OC)c(/C=C(\C)C(=O)c2ccc(Cl)c(Cl)c2)c(OC)c1` [Compound 3d, (E)-1-(3,4-Dichlorophenyl)-2-methyl-3-(2,4,6-trimethoxyphenyl)prop-2-en-1-one] came in with a melting point of 67.1 to 67.8 °C. In addition, in the series on HeLa cells, the IC50 stood at 97.6 ± 7.61 µM. In the series with SiHa cells, this compound gave an IC50 greater than 100 µM. The compound further registered a concentration for half-maximal inhibition (IC50) in the series on C33A cells of 63.7 ± 2.59 µM. In addition, the IC50 in series [1] was greater than 100 µM.

`COc1ccc(/C=C(\C)C(=O)c2ccc(Cl)c(Cl)c2)c(OC)c1OC` [Compound 3c, (E)-1-(3,4-Dichlorophenyl)-2-methyl-3-(2,3,4-trimethoxyphenyl)prop-2-en-1-one] displayed a melting point of 114.1 to 115.5 °C. For the same compound, the half-maximal inhibitory concentration (IC50) in the series with HeLa cells is greater than 100 µM. In the series with SiHa cells, half-maximal inhibition (IC50) required 41.8 ± 5.1 µM. In the series on C33A cells, 33.9 ± 4.99 µM corresponded to half-maximal inhibition (IC50). The compound further showed a concentration for half-maximal inhibition (IC50) in series [1] greater than 100 µM.

The compound `COc1cc(/C=C(\C)C(=O)c2ccc(Cl)c(Cl)c2)cc(OC)c1` [Compound 3h, (E)-1-(3,4-Dichlorophenyl)-3-(3,5-dimethoxyphenyl)-2-methylprop-2-en-1-one] returned a melting point of 157 to 158.1 °C. Besides, the half-inhibitory concentration (IC50) in the series with HeLa cells is greater than 100 µM. The half-inhibitory concentration (IC50) in the series with SiHa cells is greater than 100 µM. The same compound yielded an IC50 with C33A cells of 54.4 ± 11.5 µM. The same compound returned a 50% inhibitory concentration (IC50) in series [1] greater than 100 µM.

As to `COc1cccc(/C=C(\C)C(=O)c2ccc(Cl)c(Cl)c2)c1OC` [Compound 3i, (E)-1-(3,4-Dichlorophenyl)-3-(2,3-dimethoxyphenyl)-2-methylprop-2-en-1-one], the melting point fell in the range of 99.8 to 100.7 °C. The compound further displayed an IC50 in the series on HeLa cells greater than 100 µM. The compound further showed an IC50 with SiHa cells greater than 100 µM. The concentration for half-maximal inhibition (IC50) in the series on C33A cells amounted to 30.7 ± 8.84 µM. The same compound came in with an IC50 in series [1] greater than 100 µM.

`COc1ccc(/C=C(\C)C(=O)c2ccc(Cl)c(Cl)c2)cc1` [Compound 3m, (E)-1-(3,4-Dichlorophenyl)-3-(4-methoxyphenyl)-2-methylprop-2-en-1-one] yielded a melting point of 70 to 71.1 °C. This compound came in with an IC50 with HeLa cells of 29.8 ± 0.98 µM. Moreover, the IC50 in the series on SiHa cells is 67.7 ± 5.6 µM. In the series with C33A cells, this compound returned a concentration for half-maximal inhibition (IC50) of 35.1 ± 4.75 µM. Besides, the IC50 in series [1] is greater than 100 µM.

In turn, `CCN(CC)c1ccc(/C=C(\C)C(=O)c2ccc(Cl)c(Cl)c2)cc1` [Compound 3o, (E)-1-(3,4-Dichlorophenyl)-3-(4-(diethylamino)phenyl)-2-methylprop-2-en-1-one] returned a melting point of 186.7 to 190.8 °C. This compound gave an IC50 in the series with HeLa cells greater than 100 µM. The same compound came in with an IC50 in the series on SiHa cells greater than 100 µM. The same compound showed a half-maximal inhibitory concentration (IC50) in the series on C33A cells of 35 ± 4.93 µM. This compound came in with an IC50 in series [1] greater than 100 µM.
